The data set concerns Solanum lycopersicum. In words: Phytotoxicity against Lycopersicon esculentum L. var. Marmande at 0.05 to 0.1 mg/mL by tomato cutting assay. In kind it is organism-based. The note with it: in vivo.

Take `C[C@H](O)[C@@H]1C=CC(C2CCC(=O)O2)O1` (some centres not stated) [DIPLOBIFURANYLONE A]: the Activity result is “Non-toxic”. On to `C[C@H](O)[C@H]1C=CC(C2CCC(=O)O2)O1` (some centres not stated) [DIPLOBIFURANYLONE B], for which the Activity entry is “Non-toxic”.

These data come from ChEMBL document CHEMBL1157330, “Diplobifuranylones A and B, 5'-monosubstituted tetrahydro-2H-bifuranyl-5-ones produced by Diplodia corticola, a fungus pathogen of cork oak” (J Nat Prod, 2006).
